This is an account of results in patent publication US6326395A, “Antifungal activity of dicationic molecules” (priority 1999, dated 2001).

Where a name gives a salt, the structure may show the parent alone.

For one test, the system named is Candida albicans A39. Nature of the test: antifungal susceptibility testing (MIC, MFC), extended spectrum. To be noted: Candida albicans A39. It is filed as cell-based. An excerpt: Antifungal susceptibility testing for compounds set forth in Examples 1-20 is discussed hereinbelow. The fungi that were employed included two reference strains, C. neoformans var. neoformans H99 and C. albicans A39 and the following clinical isolates: (1) two strains of fluconazole-resistant C. neoformans var. neoformans (135.95 and 114.96); (2) two strains of C. neoformans var. gattii (119.95 and 114.95); (3) two strains of fluconazole-resistant C. albicans (102.96 and 103.96); and (4) one strain each of Torulopsis glabrata (142.91), Candida parapsilosis (111.96), Candida krusei (132.91), C. tropicalis (110.96), Candida lusitaniae (111.92), Fusarium solani (152.89), Aspergillus fumigatus (168.95), and Aspergillus flavus (112.96). Antifungal susceptibility testing was performed using an RPMI-1640 medium (Sigma Chemical Co., St. Louis, Mo.) with glutamine, without sodium bicarbonate, and buffered at pH 7.0 with 0.165 M morpholine-propanesulfonic acid (MOPS).
In vitro susceptibility testing in the form of Minimum Inhibitory Concentration (MIC) experiments were performed using the broth macrodilution method according to the recommendations of the National Committee for Clinical Laboratory Standards (see 1995 manual). The only difference compared to the standardized procedure was the choice of drug dilutions ranging from 100 to 0.09 μg/ml. Briefly, this procedure specifies an inoculum grown at 35° C. and adjusted to a concentration of 0.5-2.5×10^3 CFU/ml with an incubation of the test performed at 35° C. and reading at 48 hours for all yeasts except for C. neoformans which is interpreted at 72 hr.
Minimum Fungicidal Concentration (MFC) experiments were adapted from a method by McGinnis (McGinnis, M. R., (1980) "Susceptibility testing and bioassay procedure", p. 431, Academic Press, Inc., New York). Briefly, 10 μl aliquots from tubes with growth inhibition were plated onto Sabouraud agar plates. The lowest drug concentration that yielded three or fewer yeasts colonies was recorded as the MFC.
Antifungal susceptibility testing for compounds set forth in Examples 21-28 is discussed hereinbelow. […]
(§1) Minimum Fungicidal Concentration (MFC) experiments were adapted from a method by McGinnis (McGinnis, M. R., (1980) "Susceptibility testing and bioassay procedure", p.431, Academic Press, Inc., New York). […] The lowest drug concentration that yielded 3 or fewer yeasts colonies was recorded as the MFC. […]

The next test concerns Cryptococcus neoformans. Nature of the test: in vitro antifungal susceptibility testing (MIC, MFC; broth macrodilution), Tables 1-7. It is filed as cell-based.
Another test deals with Candida albicans. Described as above. It is filed as cell-based.
In another test the test system is C. krusei 132.91. The experiment in a line: antifungal susceptibility testing (MIC, MFC), extended spectrum. It is filed as cell-based, Candida krusei. The settings on record: Pichia kudriavzevii. Here is the method: Antifungal susceptibility testing for compounds set forth in Examples 1-20 is discussed hereinbelow. […]
In vitro susceptibility testing in the form of Minimum Inhibitory Concentration (MIC) experiments were performed using the broth macrodilution method according to the recommendations of the National Committee for Clinical Laboratory Standards (see 1995 manual). […] Briefly, this procedure specifies an inoculum grown at 35° C. and adjusted to a concentration of 0.5-2.5×10^3 CFU/ml with an incubation of the test performed at 35° C. and reading at 48 hours for all yeasts except for C. neoformans which is interpreted at 72 hr.
Minimum Fungicidal Concentration (MFC) experiments were adapted from a method by McGinnis (McGinnis, M. R., (1980) "Susceptibility testing and bioassay procedure", p. 431, Academic Press, Inc., New York). […] The lowest drug concentration that yielded three or fewer yeasts colonies was recorded as the MFC. […]
as §1

As for `CC(C)NC(=N)c1ccc2nc(-c3ccc4c(c3)Cc3cc(-c5nc6ccc(C(=N)NC(C)C)cc6[nH]5)ccc3-4)[nH]c2c1` [Compound 57, 2,7-Bis[2-(5-N-isopropylamidino)benzimidazoyl]fluorene hydrochloride], the MFC amounted to 1.56 µg/mL in the test on Candida albicans A39; 0.78 µg/mL with Cryptococcus neoformans (Tables 2-7, three or fewer colonies, read-out: MFC (Minimum fungicidal concentration)); 1.56 µg/mL with Candida albicans (three or fewer colonies, read-out: MFC (Minimum fungicidal concentration)); 0.78 µg/mL against C. krusei 132.91. Further, the MIC amounted to 0.78 µg/mL with Candida albicans A39 (48 hours, read-out: MIC80); 0.78 µg/mL in the test on Cryptococcus neoformans (35° C., 72 hr, read-out: MIC80 (Minimum inhibitory concentration 80%)); 0.78 µg/mL in the test on Candida albicans (35° C., reading at 48 hours, read-out: MIC80 (Minimum inhibitory concentration 80%)); 0.78 µg/mL with C. krusei 132.91 (48 hours, read-out: MIC80).
